Read-outs that look alike come from different tables or passages of the source.

In US20230033285A1, “Protease Inhibitors for Treatment of Coronavirus Infections” (The Scripps Research Institute, priority 2021, published 2023) one finds EC50 data, which are given here for 28 compounds.

For this assay, the system named is SARS-CoV-2. In words: microbe, parasite or virus in culture. The note with it: read-out: EC50, μM (Hela). The format is cell-based.
Setting [1] is: Severe acute respiratory syndrome coronavirus 2, HeLa-ACE2 cells infected with SARS-CoV-2, 24 h, immunofluorescence of infected cells.

One may read the EC50 as the concentration at which the effect is half-maximal. For the compound `CC(C)(C)C[C@H](NC(=O)C(=O)NC12CC(F)(C1)C2)C(=O)N[C@@H](C[C@@H]1CCCNC1=O)C(=O)CO` [Compound 94, N^1-(3-fluorobicyclo[1.1.1]pentan-1-yl)-N^2-((S)-1-(((S)-4-hydroxy-3-oxo-1-((S)-2-oxopiperidin-3-yl)butan-2-yl)amino)-4,4-dimethyl-1-oxopentan-2-yl)oxalamide], under setting [1], the concentration for a half-maximal effect (EC50) is 0.05 to 0.2 µM.
For `CC(C)(C)C[C@H](NC(=O)C(=O)Nc1cccc(OC(F)(F)F)c1)C(=O)N[C@@H](CC1CCCNC1=O)C(=O)CO` (stereo partly shown) [Compound 95], the EC50 under setting [1] was below 0.05 µM.
Take `CC(C)(C)C[C@H](NC(=O)C(=O)Nc1ccccc1C(F)(F)F)C(=O)N[C@@H](CC1CCCNC1=O)C(=O)CO` (stereo partly shown) [Compound 96]: under setting [1], the EC50 is below 0.05 µM.
As to `CC1(C[C@H](NC(=O)C(=O)NC23CC(F)(C2)C3)C(=O)N[C@@H](C[C@@H]2CCNC2=O)C(=O)CO)CCC1` [Compound 97, N^1-(3-fluorobicyclo[1.1.1]pentan-1-yl)-N^2-((S)-1-(((S)-4-hydroxy-3-oxo-1-((S)-2-oxopyrrolidin-3-yl)butan-2-yl)amino)-3-(1-methylcyclobutyl)-1-oxopropan-2-yl)oxalamide], the half-maximal effective concentration (EC50) under setting [1] is 0.05 to 0.2 µM.
Consider `CC(C)(C)C[C@H](NC(=O)C(=O)Nc1ccccc1OC(F)(F)F)C(=O)N[C@@H](CC1CCCNC1=O)C(=O)CO` (stereo partly shown) [Compound 98], for which the EC50 under setting [1] was below 0.05 µM.
Regarding `CC(C)(C)C[C@H](NC(=O)C(=O)Nc1cccc(C(F)(F)F)c1)C(=O)N[C@@H](CC1CCCNC1=O)C(=O)CO` (stereo partly shown) [Compound 99], the half-maximal effective concentration (EC50) under setting [1] was below 0.05 µM.
Take `CC(C)(C)C[C@H](NC(=O)C(=O)Nc1ccccc1C(C)(C)C)C(=O)N[C@@H](C[C@@H]1CCCNC1=O)C(=O)CO` [Compound 100, N^1-(2-(tert-butyl)phenyl)-N^2-((S)-1-(((S)-4-hydroxy-3-oxo-1-((S)-2-oxopiperidin-3-yl)butan-2-yl)amino)-4,4-dimethyl-1-oxopentan-2-yl)oxalamide]: the EC50 under setting [1] was below 0.05 µM.
Consider `CC(C)(C)C[C@H](NC(=O)C(=O)Nc1ccc(OC(F)(F)F)cc1)C(=O)N[C@@H](C[C@@H]1CCCNC1=O)C(=O)CO` [Compound 101, N^1-((S)-1-(((S)-4-hydroxy-3-oxo-1-((S)-2-oxopiperidin-3-yl)butan-2-yl)amino)-4,4-dimethyl-1-oxopentan-2-yl)-N^2-(4-(trifluoromethoxy)phenyl)oxalamide], for which the concentration for a half-maximal effect (EC50) under setting [1] is 0.05 to 0.2 µM.
For the compound `CC(C)(C)C[C@H](NC(=O)C(=O)Nc1cccc(Cl)c1)C(=O)N[C@@H](CC1CCCNC1=O)C(=O)CO` (stereo partly drawn) [Compound 102, N^1-(3-chlorophenyl)-N^2-((S)-1-(((S)-4-hydroxy-3-oxo-1-((S)-2-oxopiperidin-3-yl)butan-2-yl)amino)-4,4-dimethyl-l-oxopentan-2-yl)oxalamide], under setting [1], the concentration giving a half-maximal response (EC50) is below 0.05 µM.
On the same count and under the same terms, the value for `CC(C)CC(=O)OCC(=O)[C@H](C[C@@H]1CCNC1=O)NC(=O)[C@H](CC(C)C)NC(=O)C(=O)Nc1ccccc1F` [Compound 103, (S)-3-((S)-2-(2-((2-fluorophenyl)amino)-2-oxoacetamido)-4-methylpentanamido)-2-oxo-4-((S)-2-oxopyrrolidin-3-yl)butyl 3-methylbutanoate] was 0.05 to 0.2 µM; that for `CC(C)CC(=O)OCC(=O)[C@H](C[C@@H]1CCCNC1=O)NC(=O)[C@H](CC(C)C)NC(=O)C(=O)Nc1ccccc1F` [Compound 104, (S)-3-((S)-2-(2-((2-fluorophenyl)amino)-2-oxoacetamido)-4-methylpentanamido)-2-oxo-4-((S)-2-oxopiperidin-3-yl)butyl 3-methylbutanoate] was 0.05 to 0.2 µM; that for `CC(=O)OCC(=O)[C@H](C[C@@H]1CCCNC1=O)NC(=O)[C@H](CC(C)C)NC(=O)C(=O)Nc1ccccc1F` [Compound 105, (S)-3-((S)-2-(2-((2-fluorophenyl)amino)-2-oxoacetamido)-4-methylpentanamido)-2-oxo-4-((S)-2-oxopiperidin-3-yl)butyl acetate] was 0.05 to 0.2 µM.
Same read-out and setting: the value for `CC(=O)OCC(=O)[C@H](C[C@@H]1CCNC1=O)NC(=O)[C@H](CC(C)C)NC(=O)C(=O)Nc1ccccc1F` [Compound 106, (S)-3-((S)-2-(2-((2-fluorophenyl)amino)-2-oxoacetamido)-4-methylpentanamido)-2-oxo-4-((S)-2-oxopyrrolidin-3-yl)butyl acetate] was 0.05 to 0.2 µM; that for `CC(C)C[C@H](NC(=O)C(=O)Nc1ccccc1F)C(=O)N[C@@H](C[C@@H]1CCCNC1=O)C(=O)COC(=O)OC(C)C` [Compound 107, (S)-3-((S)-2-(2-((2-fluorophenyl)amino)-2-oxoacetamido)-4-methylpentanamido)-2-oxo-4-((S)-2-oxopiperidin-3-yl)butyl isopropyl carbonate] was below 0.05 µM.
Same read-out and setting: the value for `CC(C)C[C@H](NC(=O)C(=O)Nc1ccccc1F)C(=O)N[C@@H](C[C@@H]1CCNC1=O)C(=O)COC(=O)OC(C)C` [Compound 108, (S)-3-((S)-2-(2-((2-fluorophenyl)amino)-2-oxoacetamido)-4-methylpentanamido)-2-oxo-4-((S)-2-oxopyrrolidin-3-yl)butyl isopropyl carbonate] was 0.05 to 0.2 µM.
In the case of `O=C(N[C@@H](CC1CC1)C(=O)N[C@@H](C[C@@H]1CCCNC1=O)C(=O)CO)C(=O)NC12CCC(F)(CC1)CC2` [Compound 110, N^1-((S)-3-cyclopropyl-1-(((S)-4-hydroxy-3-oxo-1-((S)-2-oxopiperidin-3-yl)butan-2-yl)amino)-1-oxopropan-2-yl)-N^2-(4-fluorobicyclo[2.2.2]octan-1-yl)oxalamide], the half-maximal effective concentration (EC50) under setting [1] is above 1 µM.
For the compound `CC1(C[C@H](NC(=O)C(=O)NC23CC(F)(C2)C3)C(=O)N[C@@H](C[C@@H]2CCCNC2=O)C(=O)CO)CCC1` [Compound 111, N^1-(3-fluorobicyclo[1.1.1]pentan-1-yl)-N^2-((S)-1-(((S)-4-hydroxy-3-oxo-1-((S)-2-oxopiperidin-3-yl)butan-2-yl)amino)-3-(1-methylcyclobutyl)-1-oxopropan-2-yl)oxalamide], the EC50 under setting [1] lay in the range of 0.2 to 0.5 µM.
Same read-out and setting: the value for `CC(C)(C)C[C@H](NC(=O)C(=O)Nc1cccc(C(F)(F)F)n1)C(=O)N[C@@H](C[C@@H]1CCCNC1=O)C(=O)CO` [Compound 112] was 0.5 to 1 µM.
Still for that read-out and setting: in the case of `CC1(C[C@H](NC(=O)C(=O)NC(C)(C)C)C(=O)N[C@@H](C[C@@H]2CCCNC2=O)C(=O)CO)CCC1` [Compound 113, N^1-(tert-butyl)-N^2-((S)-1-(((S)-4-hydroxy-3-oxo-1-((S)-2-oxopiperidin-3-yl)butan-2-yl)amino)-3-(1-methylcyclobutyl)-1-oxopropan-2-yl)oxalamide] it was 0.05 to 0.2 µM; in that of `CC(C)C[C@H](NC(=O)C(=O)NC(C)(C)C)C(=O)N[C@@H](C[C@@H]1CCCNC1=O)C(=O)CO` [Compound 115, N^1-(tert-butyl)-N^2-((S)-1-(((S)-4-hydroxy-3-oxo-1-((S)-2-oxopiperidin-3-yl)butan-2-yl)amino)-4-methyl-1-oxopentan-2-yl)oxalamide], above 1 µM.
For the compound `CC(C)CCC(=O)N1CC2(CC2)C[C@H]1C(=O)N[C@H](C#N)C[C@@H]1CCNC1=O` [Compound 117, (S)-N-((S)-1-cyano-2-((S)-2-oxopyrrolidin-3-yl)ethyl)-5-(4-methylpentanoyl)-5-azaspiro[2.4]heptane-6-carboxamide], the EC50 under setting [1] was above 1 µM.
On to `CCCCCCC(=O)OCC(=O)[C@H](C[C@@H]1CCNC1=O)NC(=O)[C@H](CC(C)C)NC(=O)c1cc2ccccc2[nH]1` [Compound 118, (S)-3-((S)-2-(1H-indole-2-carboxamido)-4-methylpentanamido)-2-oxo-4-((S)-2-oxopyrrolidin-3-yl)butyl heptanoate], for which, under setting [1], the EC50 lay within 0.05 to 0.2 µM.
Still for that read-out and setting: in the case of `CCCCCCC(=O)OCC(=O)[C@H](C[C@@H]1CCNC1=O)NC(=O)[C@H](CC(C)C)NC(=O)c1cc2c(OC)cccc2[nH]1` [Compound 119, (S)-3-((S)-2-(4-methoxy-1H-indole-2-carboxamido)-4-methylpentanamido)-2-oxo-4-((S)-2-oxopyrrolidin-3-yl)butyl heptanoate] it was 0.05 to 0.2 µM.
Same read-out and setting: the value for `CC(C)C[C@H](NC(=O)OCc1cccc(Cl)c1)C(=O)N[C@@H](C[C@@H]1CCNC1=O)C(=O)COC(=O)C(C)C` [Compound 120, (S)-3-((S)-2-((((3-chlorobenzyl)oxy)carbonyl)amino)-4-methylpentanamido)-2-oxo-4-((S)-2-oxopyrrolidin-3-yl)butyl isobutyrate] was above 1 µM.
`CC(C)C[C@H](NC(=O)OCc1cccc(Cl)c1)C(=O)N[C@@H](C[C@@H]1CCNC1=O)C(=O)COC(=O)Cc1ccccc1` [Compound 121, (S)-3-((S)-2-((((3-chlorobenzyl)oxy)carbonyl)amino)-4-methylpentanamido)-2-oxo-4-((S)-2-oxopyrrolidin-3-yl)butyl 2-phenylacetate]: the 50% effective concentration (EC50) (Severe acute respiratory syndrome coronavirus 2, HeLa-ACE2, 24 h) is above 1 µM.
As to `CC(C)C[C@H](NC(=O)OCc1cccc(Cl)c1)C(=O)N[C@@H](C[C@@H]1CCNC1=O)C(=O)CO` [Compound 122, 3-chlorobenzyl ((S)-1-(((S)-4-hydroxy-3-oxo-1-((S)-2-oxopyrrolidin-3-yl)butan-2-yl)amino)-4-methyl-1-oxopentan-2-yl)carbamate], the EC50 under setting [1] is above 1 µM.
Turning to `COc1cccc2[nH]c(C(=O)N[C@@H](CC(C)C)C(=O)N[C@@H](C[C@@H]3CCNC3=O)C(=O)COC(=O)C3CCN(C4CCCCC4)CC3)cc12` [Compound 123, (S)-3-((S)-2-(4-methoxy-1H-indole-2-carboxamido)-4-methylpentanamido)-2-oxo-4-((S)-2-oxopyrrolidin-3-yl)butyl 1-cyclohexylpiperidine-4-carboxylate], under setting [1], the EC50 was 0.5 to 1 µM.
On to `COc1cccc2[nH]c(C(=O)N[C@@H](CC(C)C)C(=O)N[C@@H](C[C@@H]3CCNC3=O)C(=O)COC(=O)C3CCC(N4CCCCC4)CC3)cc12` (stereo partly drawn) [Compound 124, (S)-3-((S)-2-(4-methoxy-1H-indole-2-carboxamido)-4-methylpentanamido)-2-oxo-4-((S)-2-oxopyrrolidin-3-yl)butyl 4-(piperidin-1-yl)cyclohexane-1-carboxylate], for which the concentration for a half-maximal effect (EC50) under setting [1] is above 1 µM.
